Test results taken from patent publication US7517874B2 (priority 2007, dated 2009).

What was measured:
[1] = molecular target: human CB1 receptor (hCB1) (Homo sapiens, UniProt P21554); assay: cell-based; type: cell-based; settings: for +/− HCB1: agonist or inverse agonist at hCB1
Outline: (§1)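 Readout: LANCE TR-FRET cAMP, back-calculated from a concurrent standard curve and scaled between forskolin-only and forskolin + 1 μM CP55,940 wells. EC50 and intrinsic activity came from four-parameter fits.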

[2] = molecular target: T1, rat CB2 receptor (rCB2) (Rattus norvegicus, UniProt Q9QZN9); assay: cell-based; type: cell-based; settings: for +/− RCB2: agonist or inverse agonist at rCB2
T1 sequence (Q9QZN9 1-360): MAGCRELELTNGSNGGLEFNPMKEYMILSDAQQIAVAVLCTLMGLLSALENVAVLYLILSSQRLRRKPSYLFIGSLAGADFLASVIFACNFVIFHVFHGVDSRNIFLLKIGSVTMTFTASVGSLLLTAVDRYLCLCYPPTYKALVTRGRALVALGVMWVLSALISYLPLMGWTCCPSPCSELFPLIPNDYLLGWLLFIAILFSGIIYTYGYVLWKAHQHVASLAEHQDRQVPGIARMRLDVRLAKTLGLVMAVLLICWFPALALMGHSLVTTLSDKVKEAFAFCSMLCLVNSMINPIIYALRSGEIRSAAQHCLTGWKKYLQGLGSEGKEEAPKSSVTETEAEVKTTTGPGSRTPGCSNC
Outline: as §1

Chain of human CB1 receptor (hCB1) (P21554 whole entry): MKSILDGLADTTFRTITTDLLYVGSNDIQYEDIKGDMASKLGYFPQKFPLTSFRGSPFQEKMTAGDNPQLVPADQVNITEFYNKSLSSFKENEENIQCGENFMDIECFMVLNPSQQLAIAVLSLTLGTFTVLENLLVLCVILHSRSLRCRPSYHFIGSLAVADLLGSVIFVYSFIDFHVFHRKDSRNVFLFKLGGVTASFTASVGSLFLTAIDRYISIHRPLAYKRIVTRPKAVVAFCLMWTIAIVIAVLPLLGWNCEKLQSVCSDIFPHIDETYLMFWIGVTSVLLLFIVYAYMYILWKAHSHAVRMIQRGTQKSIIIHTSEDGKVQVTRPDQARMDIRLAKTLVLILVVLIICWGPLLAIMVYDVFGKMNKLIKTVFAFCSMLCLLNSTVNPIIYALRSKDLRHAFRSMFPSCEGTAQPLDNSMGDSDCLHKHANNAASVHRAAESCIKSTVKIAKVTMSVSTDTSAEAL

Structure (SMILES)	+/− HCB1 [1]	+/− RCB2 [2]	EC50 [2] [µM]	EC50 [1] [µM]
CNC(=O)[C@H](CC(C)(C)C)NC(=O)c1nc(-c2cc(Cl)c(F)cc2F)n2c1CN(C)CCC2 [Compound 554, (S)-3-(5-chloro-2,4-difluorophenyl)-N-(4,4-dimethyl-1-(methylamino)-1-oxopentan-2-yl)-8-methyl-6,7,8,9-tetrahydro-5H-imidazo[1,5-a][1,4]diazepine-1-carboxamide]	+	+		
CNC(=O)[C@H](CC(C)(C)C)NC(=O)c1nc(-c2cc(F)c(F)cc2F)n2c1CN(C)CCC2 [Compound 555, (S)-N-(4,4-dimethyl-1-(methylamino)-1-oxopentan-2-yl)-8-methyl-3-(2,4,5-trifluorophenyl)-6,7,8,9-tetrahydro-5H-imidazo[1,5-a][1,4]diazepine-1-carboxamide]	+	+		
CN1CCCn2c(-c3ccc(Cl)cc3F)nc(C(=O)N[C@H](C(=O)N(C)C)C(C)(C)C)c2C1 [Compound 556, (S)-3-(4-chloro-2-fluorophenyl)-N-(1-(dimethylamino)-3,3-dimethyl-1-oxobutan-2-yl)-8-methyl-6,7,8,9-tetrahydro-5H-imidazo[1,5-a][1,4]diazepine-1-carboxamide]	+		> 10	
CN1CCCn2c(-c3ccccc3)nc(C(=O)N[C@H](C(=O)N(C)C)C(C)(C)C)c2C1 [Compound 557, (S)-N-(1-(dimethylamino)-3,3-dimethyl-1-oxobutan-2-yl)-8-methyl-3-phenyl-6,7,8,9-tetrahydro-5H-imidazo[1,5-a][1,4]diazepine-1-carboxamide]		+		> 10
CN1CCCn2c(-c3ccc(F)c(Cl)c3)nc(C(=O)N[C@H](C(=O)N(C)C)C(C)(C)C)c2C1 [Compound 558, (S)-3-(3-chloro-4-fluorophenyl)-N-(1-(dimethylamino)-3,3-dimethyl-1-oxobutan-2-yl)-8-methyl-6,7,8,9-tetrahydro-5H-imidazo[1,5-a][1,4]diazepine-1-carboxamide]	+	+		
CN1CCCn2c(-c3cc(Cl)ccc3F)nc(C(=O)N[C@H](C(=O)N(C)C)C(C)(C)C)c2C1 [Compound 559, (S)-3-(5-chloro-2-fluorophenyl)-N-(1-(dimethylamino)-3,3-dimethyl-1-oxobutan-2-yl)-8-methyl-6,7,8,9-tetrahydro-5H-imidazo[1,5-a][1,4]diazepine-1-carboxamide]	+		> 10	
CN1CCCn2c(-c3ccc(Cl)c(F)c3)nc(C(=O)N[C@H](C(=O)N(C)C)C(C)(C)C)c2C1 [Compound 560, (S)-3-(4-chloro-3-fluorophenyl)-N-(1-(dimethylamino)-3,3-dimethyl-1-oxobutan-2-yl)-8-methyl-6,7,8,9-tetrahydro-5H-imidazo[1,5-a][1,4]diazepine-1-carboxamide]	+	+		
CN1CCCn2c(-c3ccc(F)c(F)c3)nc(C(=O)N[C@H](C(=O)N(C)C)C(C)(C)C)c2C1 [Compound 561, (S)-3-(3,4-difluorophenyl)-N-(1-(dimethylamino)-3,3-dimethyl-1-oxobutan-2-yl)-8-methyl-6,7,8,9-tetrahydro-5H-imidazo[1,5-a][1,4]diazepine-1-carboxamide]	+	+		
CN1CCCn2c(-c3cc(F)ccc3F)nc(C(=O)N[C@H](C(=O)N(C)C)C(C)(C)C)c2C1 [Compound 562, (S)-3-(2,5-difluorophenyl)-N-(1-(dimethylamino)-3,3-dimethyl-1-oxobutan-2-yl)-8-methyl-6,7,8,9-tetrahydro-5H-imidazo[1,5-a][1,4]diazepine-1-carboxamide]		−		> 10
CN1CCCn2c(-c3ccc(F)cc3F)nc(C(=O)N[C@H](C(=O)N(C)C)C(C)(C)C)c2C1 [Compound 563, (S)-3-(2,4-difluorophenyl)-N-(1-(dimethylamino)-3,3-dimethyl-1-oxobutan-2-yl)-8-methyl-6,7,8,9-tetrahydro-5H-imidazo[1,5-a][1,4]diazepine-1-carboxamide]	+	+		
